Assay [1] deals with non-transfected HEK cells. The experiment in a line: Negative control: activation of non-transfected HEK cells. It is filed as cell-based. On the procedure:
The activation of OT-R by bacterial peptides was analyzed by the measurement of calcium release from HEK cells transfected with human OT-R
As a negative control, no activation of non-transfected HEK cells with OT or bacterial peptides was observed.

For a further assay, the target named is T1, human OT-R (Homo sapiens, UniProt P30559).
T1 construct: expressed in transfected cells; host or cells: HEK cells
T1 sequence (P30559 1-389): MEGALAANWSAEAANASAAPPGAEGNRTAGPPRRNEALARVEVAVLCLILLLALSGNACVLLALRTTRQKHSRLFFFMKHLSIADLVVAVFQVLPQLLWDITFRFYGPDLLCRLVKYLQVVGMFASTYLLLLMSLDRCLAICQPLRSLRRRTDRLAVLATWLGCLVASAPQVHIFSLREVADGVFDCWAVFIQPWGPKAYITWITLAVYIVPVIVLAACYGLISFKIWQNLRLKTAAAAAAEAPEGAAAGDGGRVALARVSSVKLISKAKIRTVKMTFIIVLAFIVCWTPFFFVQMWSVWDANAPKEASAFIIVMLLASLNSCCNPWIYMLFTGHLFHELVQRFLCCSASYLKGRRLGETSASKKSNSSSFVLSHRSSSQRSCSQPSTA
The assay is described as follows: Activation of OT-R by bacterial peptides: calcium release from HEK cells transfected with human OT-R. To be noted: OTR expressing HEK cells. It is filed as cell-based.

For `CC[C@H](C)[C@@H]1NC(=O)[C@H](Cc2ccc(O)cc2)NC(=O)[C@@H](N)CSSC[C@@H](C(=O)N2CCC[C@H]2C(=O)N[C@@H](CC(C)C)C(=O)NCC(N)=O)NC(=O)[C@H](CC(N)=O)NC(=O)[C@H](CCC(N)=O)NC1=O` [OT, Oxytocin], the “activation of non-transfected HEK cells” value in assay [1] is given as “no activation”. Further, at human OT-R, the “specific activation of OTR” value is recorded as “specifically activated OTR”.

The values are drawn from patent publication US20250352589A1, “OXYTOCIN-MIMETIC COMPOSITIONS AND USES THEREOF” (INSTITUT NATIONAL DE LA SANTÉ ET DE LA RECHERCHE MÉDICALE, priority 2021, published 2025).
